In the supplement of paper PMC7394473:

Assays:
Details in all cases: 72 h
[1] = test system: U2OS; experiment: drug GRADE (percent of response due to cell death) (% (0-100)); higher = more death-driven response
Method: (§1)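 U2OS cells treated with full dose titrations of drug; live and dead cells counted by STACK microscopy (mKate2 nuclei, SYTOX Green) at 72 h, biological triplicates. GR and FV dose responses were fitted with 4-parameter logistic models (GR lower bound -1). GRADE (0-100) is the rescaled angle of a linear fit of FV versus GR at doses with GR >= 0, giving the percentage of the response due to cell death.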

[2] = test system: U2OS; experiment: normalized growth rate inhibition value (GR) relative to untreated cells (GR value (dimensionless, 1 = untreated growth)); higher = less growth inhibition
Method: (§2)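 U2OS::Nuc-mKate2 cells seeded in 96-well plates and treated with eight- to ten-point half-log or log dilutions of drug in the presence of 50 nM SYTOX Green. Live (mKate2+) and dead (SYTOX+) cells were counted by IncuCyte STACK live-cell microscopy at 72 h; biological triplicates. GR is the normalised growth-rate inhibition value (Hafner 2016; 1 = untreated growth, <0 = population shrinking). FV is live/(live+dead) cells, not normalised.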

[3] = test system: U2OS; experiment: fractional viability (live cells / total cells); higher = less cell death
Method: as §2

[4] = test system: U2OS; experiment: GRmin (fitted minimal GR value at highest effect) (GR value (dimensionless)); higher = less efficacious
Method: as §1

[5] = test system: U2OS; experiment: FV IC50 (concentration giving fractional viability 0.5); higher = less potent killing
Method: as §1

[6] = test system: U2OS; experiment: GR50 (concentration giving GR = 0.5)
Method: as §1

CC[C@]1(O)C[C@H]2CN(CCc3c([nH]c4ccccc34)[C@@](C(=O)OC)(c3cc4c(cc3OC)N(C=O)[C@H]3[C@@](O)(C(=O)OC)[C@H](OC(C)=O)[C@]5(CC)C=CCN6CC[C@]43[C@@H]65)C2)C1 [Vincristine]
Details | FV IC50 [µM] | GRmin | drug GRADE
[1] | – | – | 67.6
[4] | – | 0.000271 | –
[5] | 0.0107 | – | –

Details | fractional viability, 0.00316 µM | fractional viability, 0.0316 µM | fractional viability, 0.316 µM | fractional viability, 3.16 µM | fractional viability, 31.6 µM | normalized growth rate inhibition value, 0.00316 µM | normalized growth rate inhibition value, 0.0316 µM | normalized growth rate inhibition value, 0.316 µM | normalized growth rate inhibition value, 3.16 µM | normalized growth rate inhibition value, 31.6 µM
[2] | – | – | – | – | – | 0.251 | 0.0808 | 0.0568 | -0.0172 | 0.0544
[3] | 0.548 | 0.426 | 0.472 | 0.427 | 0.415 | – | – | – | – | –

CC[C@@]1(O)C(=O)OCc2c1cc1n(c2=O)Cc2cc3ccccc3nc2-1 [Camptothecin]
Details | FV IC50 [µM] | GR50 [µM] | GRmin | drug GRADE
[1] | – | – | – | 25.1
[4] | – | – | -0.368 | –
[5] | 0.761 | – | – | –
[6] | – | 0.00513 | – | –

Details | fractional viability, [3] | normalized growth rate inhibition value, [2]
0.001 µM | 0.969 | 0.83
0.00316 µM | 0.949 | 0.651
0.01 µM | 0.91 | 0.219
0.0316 µM | 0.898 | 0.0844
0.1 µM | 0.869 | 0.0979
0.316 µM | 0.661 | -0.0587
1 µM | 0.448 | -0.211
3.16 µM | 0.213 | -0.411

CC(C)[C@@H]1NC(=O)[C@H](C)OC(=O)[C@@H](C(C)C)NC(=O)[C@@H](C(C)C)OC(=O)[C@H](C(C)C)NC(=O)[C@H](C)OC(=O)[C@@H](C(C)C)NC(=O)[C@@H](C(C)C)OC(=O)[C@H](C(C)C)NC(=O)[C@H](C)OC(=O)[C@@H](C(C)C)NC(=O)[C@@H](C(C)C)OC1=O [Valinomycin]
Details | FV IC50 [µM] | GR50 [µM] | GRmin | drug GRADE
[1] | – | – | – | 34.4
[4] | – | – | -0.0918 | –
[5] | 4.06 | – | – | –
[6] | – | 0.0108 | – | –

Details | fractional viability, [3] | normalized growth rate inhibition value, [2]
0.00100578 µM | 0.993 | 1.02
0.00317827 µM | 0.991 | 0.986
0.0100433 µM | 0.874 | 0.171
0.0317369 µM | 0.933 | 0.472
0.100289 µM | 0.685 | -0.0547
0.316912 µM | 0.737 | 0.0438
1.00144 µM | 0.675 | -0.0358
3.16456 µM | 0.553 | -0.0823
10 µM | 0.384 | -0.225

Cc1cc(Nc2ncc(Cl)c(Nc3ccccc3S(=O)(=O)C(C)C)n2)c(OC(C)C)cc1C1CCNCC1 [Ceritinib]
Details | FV IC50 [µM] | GR50 [µM] | drug GRADE
[1] | – | – | 7.14
[5] | 5.27 | – | –
[6] | – | 3.32 | –

Details | fractional viability, [3] | normalized growth rate inhibition value, [2]
0.00100578 µM | 0.991 | 1.05
0.00317827 µM | 0.989 | 1.06
0.0100433 µM | 0.992 | 1.15
0.0317369 µM | 0.988 | 1.13
0.100289 µM | 0.989 | 1.02
0.316912 µM | 0.984 | 0.964
1.00144 µM | 0.98 | 0.904
3.16456 µM | 0.943 | 0.588
10 µM | 0 | -1

Cc1cn(-c2cc(NC(=O)c3ccc(C)c(Nc4nccc(-c5cccnc5)n4)c3)cc(C(F)(F)F)c2)cn1 [Nilotinib]
Details | FV IC50 [µM] | GR50 [µM] | drug GRADE
[1] | – | – | 27.4
[5] | 10.3 | – | –
[6] | – | 3.89 | –

Details | fractional viability, [3] | normalized growth rate inhibition value, [2]
0.01 µM | 0.984 | 1.07
0.0316 µM | 0.986 | 1.11
0.1 µM | 0.98 | 0.977
0.316 µM | 0.98 | 0.928
1 µM | 0.972 | 0.955
3.16 µM | 0.92 | 0.585
10 µM | 0.53 | -0.184
31.6 µM | 0.00617 | -0.875

CC[C@@H](C(=O)[C@@H](C)[C@@H](O)[C@H](C)[C@@H]1O[C@@H]([C@@H](CC)C(=O)O)CC[C@@H]1C)[C@H]1O[C@]2(C=C[C@@H](O)[C@]3(CC[C@@](C)([C@H]4CC[C@](O)(CC)[C@H](C)O4)O3)O2)[C@H](C)C[C@@H]1C [Salinomycin]
Details | FV IC50 [µM] | GR50 [µM] | drug GRADE
[1] | – | – | 59.9
[5] | 17.5 | – | –
[6] | – | 2.41 | –

Details | fractional viability, [3] | normalized growth rate inhibition value, [2]
0.01 µM | 0.982 | 1.07
0.0316 µM | 0.975 | 0.992
0.1 µM | 0.977 | 0.814
0.316 µM | 0.955 | 0.77
1 µM | 0.899 | 0.63
3.16 µM | 0.725 | 0.405
10 µM | 0.722 | 0.316
31.6 µM | 0.322 | -0.253

CNc1ccc2oc(C[C@H]3O[C@@]4(CC[C@H]3C)O[C@H]([C@H](C)C(=O)c3ccc[nH]3)[C@H](C)C[C@H]4C)nc2c1C(=O)O
Details | FV IC50 [µM] | GR50 [µM] | drug GRADE
[1] | – | – | 23.9
[5] | 8.33 | – | –
[6] | – | 1.69 | –

Details | fractional viability, [3] | normalized growth rate inhibition value, [2]
0.01 µM | 0.982 | 1.02
0.0316 µM | 0.983 | 1.01
0.1 µM | 0.976 | 0.913
0.316 µM | 0.97 | 0.846
1 µM | 0.959 | 0.612
3.16 µM | 0.848 | 0.31
10 µM | 0.418 | -0.171
31.6 µM | 0.0921 | -0.602

CO[C@@H]1C[C@@H](C[C@H]2CC[C@H](C)[C@H]([C@@H](C)C(=O)O)O2)O[C@]2(O[C@](C)([C@H]3CC[C@@](C)([C@@H]4O[C@@H]([C@H]5O[C@@](O)(CO)[C@H](C)C[C@@H]5C)C[C@@H]4C)O3)C[C@H]2C)[C@@H]1C [Nigericin]
Details | GR50 [µM] | GRmin | drug GRADE
[1] | – | – | 57.3
[4] | – | -0.311 | –
[6] | 0.436 | – | –

Details | fractional viability, [3] | normalized growth rate inhibition value, [2]
0.01 µM | 0.963 | 0.857
0.0316 µM | 0.957 | 0.78
0.1 µM | 0.903 | 0.777
0.316 µM | 0.829 | 0.484
1 µM | 0.625 | 0.277
3.16 µM | 0.661 | 0.287
10 µM | 0.685 | 0.155
31.6 µM | 0.449 | -0.106

CCOc1cc2ncc(C#N)c(Nc3ccc(OCc4ccccn4)c(Cl)c3)c2cc1NC(=O)/C=C/CN(C)C [Neratinib]
Details | FV IC50 [µM] | GR50 [µM] | drug GRADE
[1] | – | – | 20
[5] | 1.97 | – | –
[6] | – | 0.346 | –

Details | fractional viability, [3] | normalized growth rate inhibition value, [2]
0.000317827 µM | 0.985 | 0.803
0.00100433 µM | 0.987 | 0.812
0.00317369 µM | 0.985 | 0.867
0.0100289 µM | 0.986 | 0.776
0.0316912 µM | 0.984 | 0.727
0.100144 µM | 0.968 | 0.638
0.316456 µM | 0.933 | 0.457
1 µM | 0.879 | 0.255
3.16 µM | 0.189 | -0.534

CC[C@@H]1C(=O)N(C)c2cnc(Nc3ccc(C(=O)N[C@H]4CC[C@H](N5CCN(CC6CC6)CC5)CC4)cc3OC)nc2N1C(C)C [Volasertib]
Details | GR50 [µM] | GRmin | drug GRADE
[1] | – | – | 17.9
[4] | – | -0.24 | –
[6] | 0.0162 | – | –

Details | fractional viability, [3] | normalized growth rate inhibition value, [2]
0.000100578 µM | 0.988 | 0.973
0.000317827 µM | 0.986 | 1.07
0.00100433 µM | 0.987 | 1.1
0.00317369 µM | 0.986 | 1
0.0100289 µM | 0.964 | 0.717
0.0316912 µM | 0.86 | 0.122
0.100144 µM | 0.725 | -0.136
0.316456 µM | 0.563 | -0.25
1 µM | 0.548 | -0.259

N.N.[Cl][Pt][Cl] [Cisplatin]
Details | GR50 [µM] | GRmin | drug GRADE
[1] | – | – | 11.1
[4] | – | 0.0264 | –
[6] | 1.8 | – | –

Details | fractional viability, [3] | normalized growth rate inhibition value, [2]
0.00100578 µM | 0.99 | 0.959
0.00317827 µM | 0.989 | 0.955
0.0100433 µM | 0.988 | 1.02
0.0317369 µM | 0.99 | 0.95
0.100289 µM | 0.988 | 0.901
0.316912 µM | 0.986 | 0.972
1.00144 µM | 0.984 | 0.755
3.16456 µM | 0.957 | 0.248
10 µM | 0.884 | 0.0495

CC[C@@H]1C(=O)N(C)c2cnc(Nc3ccc(C(=O)NC4CCN(C)CC4)cc3OC)nc2N1C1CCCC1 [BI2536]
Details | FV IC50 [µM] | drug GRADE
[1] | – | 20.9
[5] | 0.0275 | –

Details | fractional viability, [3] | normalized growth rate inhibition value, [2]
0.00316 µM | 0.517 | 0.0188
0.01 µM | 0.45 | -0.371
0.0316 µM | 0.485 | -0.116
0.1 µM | 0.413 | -0.354
0.316 µM | 0.388 | -0.184
1 µM | 0.323 | -0.415
3.16 µM | 0.168 | -0.378
10 µM | 0.0141 | -0.876
31.6 µM | 0.00423 | -0.822

COc1cc([C@@H]2c3cc4c(cc3[C@@H](O[C@@H]3O[C@@H]5CO[C@@H](C)O[C@H]5[C@H](O)[C@H]3O)[C@H]3COC(=O)[C@H]23)OCO4)cc(OC)c1O [Etoposide]
Details | GR50 [µM] | GRmin | drug GRADE
[1] | – | – | 8.6
[4] | – | -0.106 | –
[6] | 0.0978 | – | –

Details | fractional viability, [3] | normalized growth rate inhibition value, [2]
0.00100578 µM | 0.99 | 0.934
0.00317827 µM | 0.988 | 1.02
0.0100433 µM | 0.993 | 0.895
0.0317369 µM | 0.989 | 0.785
0.100289 µM | 0.975 | 0.524
0.316912 µM | 0.952 | 0.11
1.00144 µM | 0.96 | -0.0401
3.16456 µM | 0.922 | -0.0127
10 µM | 0.628 | -0.155
